In patent US20220354752A1, “NANOFIBRE MATRIX MADE OF NATURAL POLYMERS WITH NATURAL FUNCTIONAL INGREDIENTS FOR COSMETIC PRODUCTS” (NANOLAYR LIMITED, priority 2019, published 2022):

What was measured:
[1] = tested on: TNF-alpha; assay: Anti-inflammatory in vitro study: TNF-alpha in reconstructed epidermis treated with SDS; format: cell-based; details: human reconstructed epidermis, 0.1% SDS, 24 hours incubation
Procedure: A human reconstructed epidermis is put in contact with the vegan nanofibres (topical application to mimic the real condition of use) and treated with an irritant inflammatory agent such as sodium dodecyl sulfate (SDS) to assess the capability of vegan nanofibers to counteract the inflammatory event. The evaluation is performed by using a non-treated epidermis as negative control and the epidermis treated only with the inflammatory agent (SDS) as a positive control. TNF-alpha is often associated with the inflammatory process and oxidative stress as an acute pro-inflammatory marker.

[2] = tested on: human epidermal melanocytes; assay: Brightening in vitro study: melanin production of melanocytes; format: cell-based; details: kojic acid 42 μg/ml in cell culture, 96 hours incubation
Procedure: In vitro study is used to evaluate the brightening effect and is determined by analysing the melanin production of melanocytes. The level of melanin produced by melanocytes determines the colour of skin, therefore, the brightening effect can be evaluated by the impact of formulation on the melanin production of melanocytes. In this study, human epidermal melanocytes are utilised. Kojic acid, traditionally used as a brightening ingredient, is used as the positive control. Kojic add is prepared in 15% ethanol/Hanks balanced salt solution and added into cell culture to give final concentration of 42 μg/ml in cell culture. 0.8 cm circles of nanofibre is directly applied into the cell culture to give a final concentration of ethyl ascorbic add of 3 μg/ml in cell culture. FIG. 5 presents the result of melanin concentration in cells only, cells treated with kojic acid and cells treated with nanofibres after 96 hours incubation time.
The absorbance of each sample is read at 405 nm and then compared with a standard curve of synthetic melanin to estimate the concentration of melanin in the cell culture. […] The melanin concentration is 101.5 μg/ml in cells only, 101.1 μg/ml in cells with kojic add and 97.48 μg/ml in cells with nanofibres. […] This is probably due to the added kojic add concentration being very low. […]

Row | Structure (SMILES) | concentration of TNF-alpha [1] | inhibition to melanin production [2] | melanin concentration [2]
1 | CCCCCCCCCCCCOS(=O)(=O)[O-].[Na+] [SDS, sodium dodecyl sulfate] | 47.92 µg/mL |  | 
2 | O=c1cc(CO)occ1O [kojic acid] |  | slight inhibition to melanin production, but is not statistically significant | 101.1 µg/mL
